Reference: patent publication EP1059033A1, “INDUSTRIAL ANTIBACTERIAL/ANTIFUNGAL AGENTS, ALGICIDES AND ANTI-BIOLOGICAL ADHESION AGENTS CONTAINING BENZYLAMINES” (Nissan Chemical Industries, Ltd., priority 1998, dated 1999)
Values after ≈ are worked out from the molar mass of the structure shown.

How the values were obtained:
Format in all cases: cell-based
Bacillus subtilis = test: Agar dilution MIC (Example 2); conditions: agar plate, 37±1 °C, 18 to 20 hours
Protocol: (§1) Series of diluted samples (20000, 10000, 5000, 2500, 2000, 1250, 625, 313, 156, 78, 39, 20, 10, 5, 2.5, 1.25 mg/l) of the compounds of the invention were prepared using dimethylsulfoxide. A sensitive culture medium-N (Nissui Seiyaku Co.) was used for bacteria and a potato dextrose agar culture medium (Nissui Seiyaku Co.) was used for fungi. 0.5 ml of each sample was added to and mixed with 9.5 ml of the culture medium, poured into a Petri dish and solidified to obtain a plate. As a result, the concentration of the compounds of the invention in the agar culture medium were 1000, 500, 250, 125, 100, 62.5, 31.3, 15.6, 7.8, 3.9, 2.0, 1.0, 0.5, 0.25, 0.125, 0.062 mg/l. The bacterium inoculated were cultured in a bouillon for the assay of sensitivity (Nissui Seiyaku Co.) at 37 °C for 20 hours, and the fungi were cultured in the potato dextrose agar culture medium (Nissui Seiyaku Co.) for 10 days and then a 10^6 CFU/ml suspension was prepared from each of them. A test bacteria or fungi suspension was streaked on an agar plate containing the compound of the present invention with platinum wire loop, and the agar plate was cultured at 37±1 °C for 18 to 20 hours for bacteria or at 27 °C for 7 days for fungi. A concentration at which no growth was seen was taken as minimum inhibitory concentration [MIC(mg/l)]. Symbols in the table mean the followings; • A: Bacillus subtilis, • B: Trichophyton mentagrophytes, • C: Rhodotorula mucilaginosa.

[1] = tested on: Trichophyton mentagrophytes; test: Agar dilution MIC (Example 2); conditions: 168 h, agar plate, 27 °C, 7 days
Protocol: as §1

Chaetomium globosum = test: Agar dilution MIC (Example 3); conditions: 168 h, agar plate, 27 °C, 7 days
Protocol: (§2) Series of diluted samples (20000, 10000, 5000, 2500, 1250, 625, 313, 156, 78, 39 mg/l) of the compounds of the invention were prepared using dimethylsulfoxide. A sensitive culture medium-N (Nissui Seiyaku Co.) was used for bacteria and a potato dextrose agar culture medium (Nissui Seiyaku Co.) was used for fungi. 0.5 ml of each sample was added to and mixed with 9.5 ml of the culture medium, poured into a Petri dish and solidified to obtain a plate. As a result, the concentration of the compounds of the invention in the agar culture medium were 1000, 500, 250, 125, 62.5, 31.3, 15.6, 7.8, 3.9, 2.0 mg/l. The bacterium inoculated were cultured in a bouillon for the assay of sensitivity (Nissui Seiyaku Co.) at 37 °C for 20 hours, and the fungi were cultured in the potato dextrose agar culture medium (Nissui Seiyaku Co.) for 10 days and then a 10^6 CFU/ml suspension was prepared from each of them. A test bacteria or fungi suspension was streaked on an agar plate containing the compound of the present invention with platinum wire loop, and the agar plate was cultured at 37±1 °C for 18 to 20 hours for bacteria or at 27 °C for 7 days for fungi. A concentration at which no growth was seen was taken as minimum inhibitory concentration (MIC). Symbols in the tables mean the followings; • A: Bacillus subtilis, • B: Trichophyton mentagrophytes, • C: Staphylococcus aureus, • D: Aspergillus niger, • E: Penicillium funiculosum, • F: Candida albicans, • G: Micrococcus luteus, • H: Corynebacterium aquaticum, • I: Chaetomium globosum, • J: Fusarium moniliforme, • K: Saccharomyces cerevisiae, • L: Rhodotorula rubra, • M: Cladosporium cladosporioides, • N: Alternaria alternata.

Saccharomyces cerevisiae = test: Agar dilution MIC (Example 3); conditions: 168 h, agar plate, 27 °C, 7 days
Protocol: as §2

Rhodotorula rubra = test: Agar dilution MIC (Example 3); conditions: 168 h, agar plate, 27 °C, 7 days
Protocol: as §2

[2] = tested on: Corynebacterium aquaticum; test: Agar dilution MIC (Example 3); conditions: Leifsonia aquatica, agar plate, 37±1 °C, 18 to 20 hours
Protocol: as §2

Penicillium funiculosum = test: Agar dilution MIC (Example 3); conditions: Talaromyces funiculosus, 168 h, agar plate, 27 °C, 7 days
Protocol: as §2

Alternaria alternata = test: Agar dilution MIC (Example 3); conditions: 168 h, agar plate, 27 °C, 7 days
Protocol: as §2

Aspergillus niger = test: Agar dilution MIC (Example 3); conditions: 168 h, agar plate, 27 °C, 7 days
Protocol: as §2

Fusarium moniliforme = test: Agar dilution MIC (Example 3); conditions: Fusarium verticillioides, 168 h, agar plate, 27 °C, 7 days
Protocol: as §2

[3] = tested on: freshwater green alga (Selenastrum capricornutum); test: Inhibition of propagation of freshwater green alga (Example 4); conditions: after 72 hours, cell number vs non-treated lot; for inhibition at 0.5 ppm: 500ppb, read-out: Propagation inhibiting rate(%) 500ppb
Protocol: A predetermined amount of each of the compounds of the invention was dissolved in a culture medium containing 10^5 /ml of a freshwater green alga (Selenastrum capricornutum) at a logarithmic growth phase to prepare samples having a concentration of the compound of the invention in the medium of 500 ppb and 50ppb respectively. The samples were stationary cultured at 23±1 °C for […] under continuous illumination.
After 72 hours, the number of cells was measured using a hemacytometer to obtain propagation rate. The propagation inhibiting rate was calculated from comparison with the non-treated lot.

Rhodotorula mucilaginosa = test: Agar dilution MIC (Example 2); conditions: 168 h, agar plate, 27 °C, 7 days
Protocol: as §1

[4] = tested on: Cladosporium cladosporioides; test: Agar dilution MIC (Example 3); conditions: 168 h, agar plate, 27 °C, 7 days
Protocol: as §2

[5] = tested on: freshwater green alga (Chlorella pyrenoidosa); test: Inhibition of propagation of freshwater algae (Example 6); conditions: Auxenochlorella pyrenoidosa, 500ppb, 168hr, read-out: Propagation inhibiting rate(%) 500ppb 168hr
Protocol: (§3) A predetermined amount each of the compounds of the invention was dissolved in a culture medium containing 10^5 /ml of a freshwater alga at a logarithmic growth phase to prepare samples having a concentration of the compound of the invention in the medium of 500 ppb and 50 ppb respectively. A shaking culture at 100 rpm was performed for […] under continuous illumination at 20±2 °C for freshwater diatom and at 23±2 °C for other algae.
(§4) After 72 hours and 168 hours, the […] of cells was measured using a hemacytometer to obtain propagation rate. The propagation inhibiting rate was calculated from comparison with the non-treated lot. Symbols in the tables mean the followings; • A: freshwater green alga (Chlorella pyrenoidosa), • B: freshwater blue-green alga (Microcystis aeruginosa), • C: freshwater diatom (Diatoma elongatum), • D: freshwater green alga (Scenedesmus pannonicus).

[6] = tested on: freshwater green alga (Scenedesmus pannonicus); test: as above; conditions: Desmodesmus pannonicus, 500ppb, 72hr, read-out: Propagation inhibiting rate (%) 500ppb 72hr
Protocol: as §3, §4

[7] = tested on: seawater diatom [Nitzschia closterium]; test: Inhibition of propagation of seawater diatom (Example 5); conditions: Cylindrotheca closterium, 72 h, read-out: Propagation inhibiting rate(%) 500ppb
Protocol: A predetermined amount of each of the compounds of the invention was dissolved in culture media containing 10^5 /ml of a seawater diatom [Nitzschia closterium] at a logarithmic growth phase to prepare samples having a concentration of the compound in the medium of 500 ppb. The samples were stationary cultured at 22±1 °C for […] under continuous illumination.
After 72 hours, cells were collected by centrifugation and disrupted by addition of methanol to extract chlorophyll, and the amount of chlorophyll was measured from absorbance using a spectrophotometer to obtain propagation rate. The propagation inhibiting rate was calculated from comparison with the non-treated lot.

| SMILES | MIC [1] | MIC (Chaetomium globosum) | MIC (Saccharomyces cerevisiae) | MIC [2] | MIC (Penicillium funiculosum) | MIC (Fusarium moniliforme) | inhibition at 0.5 ppm [3] | MIC (Rhodotorula mucilaginosa) | inhibition at 0.5 ppm [7] | further results |
| --- | --- | --- | --- | --- | --- | --- | --- | --- | --- | --- |
| CN(Cc1ccc(C(C)(C)C)cc1)Cc1c(Cl)cccc1Cl [Compound 19] | 0.25 µg/mL (≈ 0.743 µM) | – | – | – | – | – | – | – | – | MIC (Bacillus subtilis): 15.6 µg/mL (≈ 46.4 µM) |
| Cc1cc(C)c(CN(C)Cc2ccc(C(C)(C)C)cc2)c(C)c1 [Compound 20] | 2 µg/mL (≈ 6.46 µM) | 31.3 µg/mL (≈ 101 µM) | 15.6 µg/mL (≈ 50.4 µM) | 7.8 µg/mL (≈ 25.2 µM) | 15.6 µg/mL (≈ 50.4 µM) | 31.3 µg/mL (≈ 101 µM) | 63% | 15.6 µg/mL (≈ 50.4 µM) | – | MIC (Rhodotorula rubra): 31.3 µg/mL (≈ 101 µM); MIC (Alternaria alternata): 15.6 µg/mL (≈ 50.4 µM); MIC (Aspergillus niger): 7.8 µg/mL (≈ 25.2 µM) |
| Cc1ccc(CN(C)Cc2ccc(C(C)(C)C)cc2)cc1C [Compound 23] | 2 µg/mL (≈ 6.77 µM) | 125 µg/mL (≈ 423 µM) | 125 µg/mL (≈ 423 µM) | 31.3 µg/mL (≈ 106 µM) | 63 µg/mL (≈ 213 µM) | 125 µg/mL (≈ 423 µM) | 97% | – | – | MIC [4]: 125 µg/mL (≈ 423 µM); inhibition at 0.05 ppm ([3]; 50ppb, read-out: Propagation inhibiting rate(%) 50ppb): 65% |
| CC(C)Cc1ccc(CN(C)Cc2cccc3ccccc23)cc1 [Compound 32] | < 1 µg/mL | – | – | – | – | – | 86% | – | – | inhibition at 0.5 ppm [5]: 75%; inhibition at 0.5 ppm [6]: 83% |
| CC(C)(C)c1ccc(CNCc2ccc(Cl)c(Cl)c2)cc1 [Compound 34] | 7.8 µg/mL (≈ 24.2 µM) | – | – | – | – | – | 98% | 62.5 µg/mL (≈ 194 µM) | 100% | – |
| Clc1ccc(CNCc2cccc3ccccc23)cc1Cl [Compound 49] | 15.6 µg/mL (≈ 49.3 µM) | – | – | – | – | – | 97% | 62.5 µg/mL (≈ 198 µM) | 100% | – |
